We go through 1 molecule from patent US20130302422A1, “PHARMACEUTICAL COMPOSITION FOR TREATMENT AND PREVENTION OF KIDNEY DISEASES” (KT & G CORPORATION, priority 2007, published 2013).

The test system of assay [1] is acute renal failure-induced animals. The experiment in a line: Acute renal failure induced by ischaemia/reperfusion injury in rats (Experimental Example 1). The assay is classed as in vivo, Sprague-Dawley rats. The text has this: Creatine is non-enzymatically converted into creatinine that is a waste product of muscle energy metabolism. Creatinine is a waste by-product and is therefore filtered by the kidney, but not reabsorbed. Since the muscle mass is generally maintained at a constant level and is less susceptible to other organs except for the kidney, a serum creatinine level is a good marker of the glomerular filtration rate. A higher creatinine concentration reflects more significant impairment of renal function. For example, a two-fold increase of the creatinine level represents a 50% decrease of the glomerular filtration rate.
Accumulation of toxic ammonia in the body is prevented in a manner that ammonia is produced by deamination of amino acids during a protein metabolic process and is then converted into urea in the liver. When excretory function of the kidney is compromised, the blood urea nitrogen level is elevated. Therefore, measurement of BUN is an important indicator to examine whether the kidney is normally functional or not. When the BUN level is elevated over a normal value, the subject is suspected to have acute nephritis, chronic nephritis, prostate hyperplasia or the like. When the BUN level is dropped below a normal value, the subject is suspected to have diabetes insipidus, muscular dystrophy or the like.
Among compounds of Formula 1, effects of 7,8-dihydro-2,2-dimethyl-2H-naphtho(2,3-b)dihydropyran-7,8-dione (hereinafter, referred to as “compound of Example 1”) on acute renal failure were examined. For this purpose, 6-week-old male Sprague-Dawley rats, weighing 200 to 220 g (Japan SLC, Inc., Japan) were divided into two groups as given in Table 1 below: a vehicle-treated control group and a group received the compound of Example 1 (200 mg/kg). Animals were given test samples by the oral route. […]
Following the IR induction, 0.2 mL of serum was sampled from each animal on +1 day, +3 day and +5 day, respectively. Creatinine and BUN (blood urea nitrogen) levels were measured with an automatic biochemical analyzer (HITACHI, 7020).

In assay [2] the test system is diabetic nephropathy-induced animals. The experiment in a line: Diabetic nephropathy model in ZDF rats (Experimental Example 2). The assay is classed as in vivo, Zucker diabetic fatty (ZDF) rats. The settings on record: 250 mg/kg oral. The text has this: When the blood glucose level is elevated, glucose in the blood partially binds to hemoglobin in red blood cells, producing glycosylated hemoglobin (termed HbAlc). When glycosylated hemoglobin is formed, the corresponding red blood cells will retain HbAlc until the red blood cells complete their lives to be destroyed. […] The HbAlc reflect a blood glucose value over a relatively long period of time, so the measurement of the HbAlc level may be a useful indicator of how well diabetes has been therapeutically controlled over the past several months.
An increase in the rate of excretion of albumin in the urine is the most preceding clinical finding in diabetic nephropathy. Therefore, an increased level of urine albumin is an indicator of renal or hepatic diseases.
8-week-old male Zucker diabetic fatty (ZDF) rats (Charles River Laboratory) were divided into four groups as given in Table 2 below: Vehicle, MB660 (250 mg/kg), Pair-fed, and Rosi (6 mg/kg). Animals were orally given test samples.
Diabetic nephropathy model animals were fed with a low-fat feed (11.9 kcal % fat, 5053, Labdiet). Animals with a blood glucose level of 300 mg/dl and a body weight (BW) of more than 300 g were selected and treated with test samples for 4 and 8 weeks, respectively (total 12 and 16 weeks old). In-vivo changes in glycosylated hemoglobin (HbAlc), urine albumin and urine protein (1,000× urine albumin/urine creatinine) associated with kidney diseases were observed. Albumin was measured using an immunoturbidimetric assay, and creatinine was measured using a Jaffe rate method.

For the molecule `CC1(C)CCC2=C(O1)c1ccccc1C(=O)C2=O` [Example 1, 7,8-dihydro-2,2-dimethyl-2H-naphtho(2,3-b)dihydropyran-7,8-dione], the serum creatinine level result in assay [1] (200 mg/kg oral for two weeks before IR induction, serum on +1, +3, +5 day, vs control group, most prominent after 3 days of reperfusion (FIG. 1)) is reported as “significantly decreased”. The “serum BUN (blood urea nitrogen) level” value in assay [1] (200 mg/kg oral for two weeks before IR induction, serum on +1, +3, +5 day, vs control group, most remarkable after 3 days of reperfusion (FIG. 2)) was “significant reduction”. Besides, in assay [1] (200 mg/kg oral, inferred from serum creatinine and BUN results), the glomerular filtration rate result is given as “elevation”. Moreover, the “glycosylated hemoglobin (HbAlc)” value in assay [2] (treated 4 and 8 weeks (FIG. 3)) is “significantly low”. Besides, in assay [2] (treated 4 and 8 weeks, compared with Rosiglitazone 6 mg/kg group (FIG. 5)), the urine albumin level result is given as “lower”. The “daily urine protein level (1000× urine albumin/urine creatinine)” value in assay [2] (treated 4 and 8 weeks, compared with Rosiglitazone 6 mg/kg group (FIG. 6)) is “lower”. Also, the left kidney weight entry in assay [2] (treated 4 and 8 weeks, vs diabetic nephropathy-induced control group (FIG. 4)) is listed as “significant decrease”.
